Results published in patent US20230277661A1, “TREATMENT OF CANCER USING A CEA CD3 BISPECIFIC ANTIBODY AND A TGFbeta SIGNALING INHIBITOR” (Hoffmann-La Roche Inc., priority 2020, published 2023).
Like-named read-outs stand apart in the source and are kept apart here.

Tests used:
[1] = tested on: PDOs that stably express high CEA levels; assay: PDO and ex vivo CD8 T-cell co-culture with TGFβ inhibitor galunisertib; assay type: cell-based, human; conditions: galunisertib 5 μM or 10 μM; TGFβ 10 ng/ml; cibisatamab 20 nM; ex vivo CD8 T cells, E:T 1:1; two PDO models
Experimental: PDOs that stably express high CEA levels were combined with ex vivo allogeneic CD8 T cells isolated from healthy donor PBMCs in a 2D co-culture at an effector:target (E:T) ratio of 1:1. T cells were preincubated with TGFβ (10 ng/ml) prior to adding either DP47 or cibisatamab treatment with or without TGFβ inhibitor galunisertib.
The growth of GFP PDOs was tracked by monitoring changes in confluency with fluorescence microscopy and efficacy of the combination therapy assessed by comparing growth reduction from single therapy and combined therapy conditions.
Ex vivo CD8 T cells were isolated from PBMCs as described above and pre-incubated with TGFβ (10 ng/ml) for 72 hours before being combined with tumour cells that were seeded 24 hours before at a density of 5000 tumour cells per well in a 96 well plate as described above (E:T 1:1). On the same day (day 0) the co-culture was treated with either 20 nM of cibisatamab or 20 nM of the untargeted negative control antibody DP47-TCB +/− TGFβ ([…]) +/− galunisertib (5 μM or 10 μM, Tocris). All conditions were plated in triplicates.
(§1) The GFP confluence was quantified every 48-96 hrs over a 12-day period using the GFP confluence application on the Celigo Imaging Cytometer (Nexcelom Bioscience). […] In order to calculate the percentage of growth reduction, the fold change of growth from day 0 to day 12 was calculated and 1 was subtracted. […]

[2] = tested on: patient-derived colorectal cancer organoid lines (PDOs) with high cell surface CEA expression levels; assay: PDO growth in co-culture with CD8 or CD4 T cells (GFP confluence); assay type: cell-based, human
Experimental: Three patient-derived colorectal cancer organoid lines (PDOs) with high cell surface CEA expression levels were treated with cibisatamab (20 nM) or the corresponding untargeted control antibody DP47-TCB (see SEQ ID NOs 21 and 22 for VH and VL regions, respectively) (20 nM) either in the presence or absence of recombinant TGFβ1 (10 ng/ml) during 12 days of co-culture with allogeneic CD8 T cells at an Effector:Target ratio of […] (FIG. 1A). Growth of the nuclear GFP labelled organoid cells was monitored by fluorescent microscopy. CD8 T cells had been generated from allogeneic healthy donor cells by extracting peripheral blood mononuclear (PBMCs) cells followed by stimulation with IL-2 and CD3/CD28-beads and expansion in vitro. CD8 T cells and PDOs +/− TGFβ (10 ng/ml) were pre-incubated together for 72 hours prior to the addition of cibisatamab or DP47-TCB.
The same experiment was repeated using two PDO lines and CD4 T cells instead of CD8 T cells (FIG. 1B). CD4+CD25-T cells were isolated from allogeneic healthy donor PBMCs and expanded in vitro as described above.
The initial screen was generated with in vitro expanded and pre-activated CD8 T-cells. […]
In order to calculate the growth of cibisatamab treated PDOs relative to DP47-TCB treated PDOs, the fold change of growth from day 0 to day 12 was calculated and 1 was subtracted. […]
PDOs were harvested with TrypLE Express and neutralised with DMEM/F12 Ham medium (Sigma Aldrich) with 10% FBS. Cells were filtered through a 70 μm filter, counted and re-suspended in RPMI medium (Thermo Fisher) supplemented with 10% FBS (Labtech), 1X Glutamax and 100 units penicillin-streptomycin. […]
as §1

[3] = tested on: CD8 T-cells; assay: FACS analysis of CD8 T-cells co-cultured with PDOs; assay type: cell-based, human; conditions: 8 days co-culture with PDOs during CEA-TCB treatment; flow cytometry
Experimental: FIG. 3. Effect of TGFβ on granzyme expression and proliferation of CD8 T-cells. (A) Granzyme expression in ex vivo CD8 T-cells determined by flow cytometry after 8 days of co-culture with a high cell surface CEA expressing PDO. (B) Proliferation of ex vivo CD8 T-cells treated with either DP47-TCB or cibisatamab assessed by flow cytometry after 8 days of co-culture with a high cell surface CEA expressing PDO. (C) Same as (B) except that co-culture was treated with recombinant TGFβ.
Thus, TGFβ potently suppresses cibisatamab mediated tumor control by blocking proliferation and effector functions.

[4] = tested on: CEA expressing metastatic CRCs; conditions: cited from earlier work

With `Cc1cccc(-c2nn3c(c2-c2ccnc4ccc(C(N)=O)cc24)CCC3)n1` [Galunisertib, 4-(5,6-Dihydro-2-(6-methyl-2-pyridinyl)-4H-pyrrolo(1,2-b)pyrazol-3-yl)-6-quinolinecarboxamide] the “reversal of TGFβ effects on cibisatamab activity (PDO growth)” value [1] was “strongly reduced TGFβ effects”.

For “TGFβ: recombinant TGFβ1 (10 ng/ml, R&D Systems) added to the co-cultures as immunosuppressive factor”, the “growth of cibisatamab treated PDOs compared to PDOs treated with cibisatamab alone” value ([2]; TGFβ 10 ng/ml added, day 12, CD8 and CD4 T cells) was “increased the growth of cibisatamab treated PDOs”, the “effect of TGFβ on efficacy of cibisatamab” value ([2]; TGFβ1 10 ng/ml, cibisatamab 20 nM, CD8 and CD4 T cells, 12 days co-culture) was “impaired the efficacy of cibisatamab” and the T-cell granzyme expression [3] was “strongly reduced”. The “proliferation of T-cells” value [3] was “strongly reduced”.

B1: cibisatamab: T-cell activating bispecific antibody targeting carcinoembryonic antigen (CEA) on tumor cells and CD3 on T-cells (antibody, chains of the INN, looked up, V domains shown)
VH: QVQLVQSGAEVKKPGASVKVSCKASGYTFTEFGMNWVRQAPGQGLEWMGWINTKTGEATYVEEFKGRVTFTTDTSTSTAYMELRSLRSDDTAVYYCARWDFAYYVEAMDYWGQGTTVTVSS
VL: DIQMTQSPSSLSASVGDRVTITCKASAAVGTYVAWYQQKPGKAPKLLIYSASYRKRGVPSRFSGSGSGTDFTLTISSLQPEDFATYYCHQYYTYPLFTFGQGTKLEIK
VH2: B1 VH
VL2: QAVVTQEPSLTVSPGGTVTLTCGSSTGAVTTSNYANWVQEKPGQAFRGLIGGTNKRAPGTPARFSGSLLGGKAALTLSGAQPEDEAEYYCALWYSNLWVFGGGTKLTVL
For B1, the “growth of PDOs relative to DP47-TCB treated (control) PDOs” value ([2]; cibisatamab 20 nM, day 12, CD8 or CD4 T cells) is given as “reduced the growth of PDOs”, the “antitumor activity with radiological shrinkage, share of patients” value ([4]; in combination with PD-L1-inhibiting antibodies, 5/10) is given as 50% and the “antitumor activity with radiological shrinkage, share of patients” value ([4]; monotherapy, patients had failed at least two prior chemotherapy regimens, 4/36) is given as 11%.
